Experimental findings from US20080242661A1, “Novel compounds useful for the treatment of degenerative & inflammatory diseases” (priority 2006, published 2008) are described below.

This assay has as its target purified PDE1A enzyme (Homo sapiens, UniProt P54750). The assay is described as follows: In vitro PDE1A assay, dose response (Biomol Cyclic Nucleotide Phosphodiesterase Assay Kit, colorimetric). Format: biochemical. To be noted: 100 μM cAMP, 45 min at 37° C., 8 points from 20 μM, duplicate. The text has this: For the dose response and further screening, we used the Cyclic Nucleotide Phosphodiesterase Assay Kit from Biomol, a colorimetric, non-radioactive assay. The basis for the assay is the cleavage of cAMP by PDE1A. The 5′AMP is further cleaved into the nucleoside and phosphate by the enzyme 5′-nucleotidase (catnr KI-307). The phosphate released due to enzymatic cleavage is quantified using BIOMOL GREEN™ reagent (catnr AK-111) in a modified Malachite Green assay 1,2. A PDE1A inhibitor will result in a decrease of the signal.
For the enzymatic reaction a mix of 25 μL with purified PDE1A enzyme, 100 μM cAMP, 5′Nucleotidase and the compound is made in a clear 384-plate. The reaction buffer is Tris 20 mM pH 7.4, 4 μg/ml calmodulin, 3 mM MgCl2, 1.5 mM CaCl2, 0.2 mg/mL BSA and 0.001% Brij-35. After an incubation of 45 minutes at 37° C., the reaction is stopped by the addition of 50 μL BIOMOL GREEN™ reagent. After 30 minutes incubation at room temperature, the readout is performed on the Envision (absorption at 615 nm).
All compounds are tested in duplicate starting from 20 μM followed by a ⅓ serial dilution, 8 points (20 μM-6.67 μM-2.22 μM-740 nM-247 nM-82 nM-27 nM-9 nM) in a final concentration of 1% DMSO. As the positive dose response control compound Vardenafil is used. For the calculation of z′ and PIN values 10 μM Vardenafil is used as positive control (100% inhibition) and 1% DMSO as negative control (0% inhibition).
The following compounds have been or can be prepared according to the synthetic methods described above. For the purpose of Table 2 below, activity of each compound, which can be determined using the PDE1A assay method described in above, is expressed as follows: […]

Molecules are shown by their SMILES.

Turning to `CCCc1nn(C)c2c(=O)[nH]c(N3CCc4cc(F)ccc4C3)nc12` [Example 34, 5-(6-fluoro-3,4-dihydroisoquinolin-2(1H)-yl)-1-methyl-3-propyl-1H-pyrazolo[4,3-d]pyrimidin-7(6H)-one], the IC50 (as a rule, the concentration at which inhibition is half-maximal) was 101 to 500 nM.
With `CCCc1nn(C)c2c(=O)[nH]c(N(C)Cc3nn(C)c4ccccc34)nc12` [Example 35, 1-methyl-5-(methyl((1-methyl-1H-indazol-3-yl)methyl)amino)-3-propyl-1H-pyrazolo[4,3-d]pyrimidin-7(6H)-one], the IC50 was above 500 nM.
On to `CCCc1nn(C)c2c(=O)[nH]c(N(C)Cc3cc4cccnc4s3)nc12` [Example 36, 1-methyl-5-(methyl(thieno[2,3-b]pyridin-2-ylmethyl)amino)-3-propyl-1H-pyrazolo[4,3-d]pyrimidin-7(6H)-one], for which the IC50 lay within 101 to 500 nM.
Consider `CCCc1nn(C)c2c(=O)[nH]c(N3CCc4cc(OC)c(OC)cc4C3C)nc12` (centres unmarked) [Example 37, 5-(6,7-dimethoxy-1-methyl-3,4-dihydroisoquinolin-2(1H)-yl)-1-methyl-3-propyl-1H-pyrazolo[4,3-d]pyrimidin-7(6H)-one], for which the IC50 lay in the range of 101 to 500 nM.
Consider `CCCc1nn(C)c2c(=O)[nH]c(N(C)Cc3cc(-c4ccccc4)nn3C)nc12` [Example 38, 1-methyl-5-(methyl((1-methyl-3-phenyl-1H-pyrazol-5-yl)methyl)amino)-3-propyl-1H-pyrazolo[4,3-d]pyrimidin-7(6H)-one], for which the IC50 was below 100 nM.
Turning to `CCCc1nn(C)c2c(=O)[nH]c(N(C)Cc3csc(-c4ccc(C(F)(F)F)cc4)n3)nc12` [Example 39, 1-methyl-5-(methyl((2-(4-(trifluoromethyl)phenyl)thiazol-4-yl)methyl)amino)-3-propyl-1H-pyrazolo[4,3-d]pyrimidin-7(6H)-one], the concentration for half-maximal inhibition (IC50) lay within 101 to 500 nM.
As to `CCCc1nn(C)c2c(=O)[nH]c(N(C)Cc3ccc(-c4ccncc4)cc3)nc12` [Example 40, 1-methyl-5-(methyl(4-(pyridin-4-yl)benzyl)amino)-3-propyl-1H-pyrazolo[4,3-d]pyrimidin-7(6H)-one], the half-inhibitory concentration (IC50) is below 100 nM.
In turn, `CCCc1nn(C)c2c(=O)[nH]c(N(C)Cc3ccnc(N4CCCC4)c3)nc12` [Example 41, 1-methyl-5-(methyl((2-(pyrrolidin-1-yl)pyridin-4-yl)methyl)amino)-3-propyl-1H-pyrazolo[4,3-d]pyrimidin-7(6H)-one] yielded a half-maximal inhibitory concentration (IC50) above 500 nM.
Compound `CCCc1nn(C)c2c(=O)[nH]c(N(C)Cc3cccc(N4CCOCC4)n3)nc12` [Example 42, 1-methyl-5-(methyl((6-morpholinopyridin-2-yl)methyl)amino)-3-propyl-1H-pyrazolo[4,3-d]pyrimidin-7(6H)-one] yielded a 50% inhibitory concentration (IC50) of 101 to 500 nM.
`CCCc1nn(C)c2c(=O)[nH]c(N(C)Cc3cccc(-c4ccncc4)c3)nc12` [Example 43, 1-methyl-5-(methyl(3-(pyridin-4-yl)benzyl)amino)-3-propyl-1H-pyrazolo[4,3-d]pyrimidin-7(6H)-one] returned an IC50 below 100 nM.
The result for `CCCc1nn(C)c2c(=O)[nH]c(N(C)Cc3ccc(-c4ccccn4)cc3)nc12` [Example 44, 1-methyl-5-(methyl(4-(pyridin-2-yl)benzyl)amino)-3-propyl-1H-pyrazolo[4,3-d]pyrimidin-7(6H)-one] reads 101 to 500 nM; that for `CCCc1nn(C)c2c(=O)[nH]c(N(CCC(C)C)Cc3ccc(Cl)c(Cl)c3)nc12` [Example 45, 5-((3,4-dichlorobenzyl)(isopentyl)amino)-1-methyl-3-propyl-1H-pyrazolo[4,3-d]pyrimidin-7(6H)-one], below 100 nM.
To `CCCCN(Cc1ccc(Cl)c(Cl)c1)c1nc2c(CCC)nn(C)c2c(=O)[nH]1` [Example 46, 5-(butyl(3,4-dichlorobenzyl)amino)-1-methyl-3-propyl-1H-pyrazolo[4,3-d]pyrimidin-7(6H)-one] belongs 101 to 500 nM.
The compound `CCCc1nn(C)c2c(=O)[nH]c(N(C)Cc3sc(-c4ccccc4)nc3C)nc12` [Example 47, 1-methyl-5-(methyl((4-methyl-2-phenylthiazol-5-yl)methyl)amino)-3-propyl-1H-pyrazolo[4,3-d]pyrimidin-7(6H)-one] yielded an IC50 below 100 nM.
Compound `CCCc1nn(C)c2c(=O)[nH]c(N(C)Cc3cccc(OCCN4CCOCC4)c3)nc12` [Example 48, 1-methyl-5-(methyl(3-(2-morpholinoethoxy)benzyl)amino)-3-propyl-1H-pyrazolo[4,3-d]pyrimidin-7(6H)-one] displayed an IC50 above 500 nM.
As to `CCCc1nn(C)c2c(=O)[nH]c(N(C)Cc3ccc(OCCN4CCOCC4)cc3)nc12` [Example 49, 1-methyl-5-(methyl(4-(2-morpholinoethoxy)benzyl)amino)-3-propyl-1H-pyrazolo[4,3-d]pyrimidin-7(6H)-one], the IC50 lay within 101 to 500 nM.
Take `CCCc1nn(C)c2c(=O)[nH]c(NCc3ccccc3OCCN3CCOCC3)nc12` [Example 50, 1-methyl-5-(2-(2-morpholinoethoxy)benzylamino)-3-propyl-1H-pyrazolo[4,3-d]pyrimidin-7(6H)-one]: the IC50 is above 500 nM.
Compound `CCCc1nn(C)c2c(=O)[nH]c(NCc3c(-c4ccccc4)noc3C)nc12` [Example 51, 1-methyl-5-((5-methyl-3-phenylisoxazol-4-yl)methylamino)-3-propyl-1H-pyrazolo[4,3-d]pyrimidin-7(6H)-one] had a 50% inhibitory concentration (IC50) of 101 to 500 nM.
As for `CCCc1nn(C)c2c(=O)[nH]c(NCc3nn(-c4ccccc4)nc3C)nc12` [Example 52, 1-methyl-5-((5-methyl-2-phenyl-2H-1,2,3-triazol-4-yl)methylamino)-3-propyl-1H-pyrazolo[4,3-d]pyrimidin-7(6H)-one], the IC50 was below 100 nM.
Take `CCCc1nn(C)c2c(=O)[nH]c(NCc3cccc(CN4CCOCC4)c3)nc12` [Example 53, 1-methyl-5-(3-(morpholinomethyl)benzylamino)-3-propyl-1H-pyrazolo[4,3-d]pyrimidin-7(6H)-one]: the IC50 is above 500 nM.
As to `CCCc1nn(C)c2c(=O)[nH]c(NCc3ccnc(N4CCOCC4)c3)nc12` [Example 54, 1-methyl-5-((2-morpholinopyridin-4-yl)methylamino)-3-propyl-1H-pyrazolo[4,3-d]pyrimidin-7(6H)-one], the IC50 lay within 101 to 500 nM.
`CCCc1nn(C)c2c(=O)[nH]c(NCc3cccc(OCCN4CCOCC4)c3)nc12` [Example 55, 1-methyl-5-(3-(2-morpholinoethoxy)benzylamino)-3-propyl-1H-pyrazolo[4,3-d]pyrimidin-7(6H)-one] showed an IC50 of 101 to 500 nM.
`CCCc1nn(C)c2c(=O)[nH]c(NCc3cccc(N4CCOCC4)c3)nc12` [Example 56, 1-methyl-5-(3-morpholinobenzylamino)-3-propyl-1H-pyrazolo[4,3-d]pyrimidin-7(6H)-one] registered an IC50 of 101 to 500 nM.
For `CCCc1nn(C)c2c(=O)[nH]c(NCc3ccn(-c4ccccc4)n3)nc12` [Example 57, 1-methyl-5-((1-phenyl-1H-pyrazol-3-yl)methylamino)-3-propyl-1H-pyrazolo[4,3-d]pyrimidin-7(6H)-one], the IC50 is 101 to 500 nM.
`CCCc1nn(C)c2c(=O)[nH]c(N(C)Cc3cccc4ccccc34)nc12` [Example 58, 1-methyl-5-(methyl(naphthalen-1-ylmethyl)amino)-3-propyl-1H-pyrazolo[4,3-d]pyrimidin-7(6H)-one] had a half-maximal inhibitory concentration (IC50) above 500 nM.
In turn, `CCCc1nn(C)c2c(=O)[nH]c(N3CCN(C(=O)C(c4ccccc4)c4ccccc4)CC3)nc12` [Example 59, 5-(4-(2,2-diphenylacetoyl)piperazin-1-yl)-1-methyl-3-propyl-1H-pyrazolo[4,3-d]pyrimidin-7(6H)-one] registered a concentration for half-maximal inhibition (IC50) above 500 nM.
In turn, `CCCc1nn(C)c2c(=O)[nH]c(N3CCC(C(F)(F)F)CC3)nc12` [Example 60, 1-methyl-3-propyl-5-(4-(trifluoromethyl)piperidin-1-yl)-1H-pyrazolo[4,3-d]pyrimidin-7(6H)-one] showed an IC50 above 500 nM.
For the compound `CCCc1nn(C)c2c(=O)[nH]c(N(C)Cc3ccc(N4CCOCC4)cc3)nc12` [Example 61, 1-methyl-5-(methyl(4-morpholinobenzyl)amino)-3-propyl-1H-pyrazolo[4,3-d]pyrimidin-7(6H)-one], the half-maximal inhibitory concentration (IC50) fell in the range of 101 to 500 nM.
The result for `CCCc1nn(C)c2c(=O)[nH]c(NCc3ccc4c(c3)CCO4)nc12` [Example 62, 5-((2,3-dihydrobenzofuran-5-yl)methylamino)-1-methyl-3-propyl-1H-pyrazolo[4,3-d]pyrimidin-7(6H)-one] reads 101 to 500 nM; that for `CCCc1nn(C)c2c(=O)[nH]c(NCc3cccc(-n4cccn4)c3)nc12` [Example 63], 101 to 500 nM; that for `CCCc1nn(C)c2c(=O)[nH]c(NCc3cccc(-n4cccc4)c3)nc12` [Example 64], 101 to 500 nM.
`CCCc1nn(C)c2c(=O)[nH]c(N(C)Cc3cccc(-c4csc(C)n4)c3)nc12` [Example 65, 1-methyl-5-(methyl(3-(2-methylthiazol-4-yl)benzyl)amino)-3-propyl-1H-pyrazolo[4,3-d]pyrimidin-7(6H)-one] showed an IC50 of 101 to 500 nM.
